Paper PMC7826463, “Pamiparib dose escalation in Chinese patients with non‐mucinous high‐grade ovarian cancer or advanced triple‐negative breast cancer” (Cancer Medicine, 2020)
“And” between values parts separate entries of the source, which are not always exact repeats. Equal entries are not always repeated.

What was measured:
[1] = test system: high-grade ovarian cancer (HGOC); assay: CA-125 response per Gynecologic Cancer Intergroup in patients with HGOC; type: in vivo, human
Method: Among eligible patients with HGOC, carcinoma antigen 125 (CA‐125) response rate per Gynecologic Cancer Intergroup was also assessed. Patients with HGOC had CA‐125 tested in a local laboratory at baseline, every 6 weeks in the 1st year, and then, every 12 weeks thereafter. CA‐125 responses must have been confirmed and maintained for at least 28 days. Germline and tBRCA1/2 mutations were analyzed as predictive biomarkers of antitumor activity and resistance to pamiparib. BRCA mutations were assessed using next‐generation sequencing, performed by BGI Genomics Co., Ltd, using the germline (gBRCA) or somatic (tBRCA) Hereditary Breast and Ovarian Cancer Test. Approximately 14 to 18 evaluable patients were expected to enroll in the phase 1 part of the study. The safety population included all patients who received ≥1 dose of pamiparib. The PK population included all patients for whom valid pamiparib PK parameters could be estimated. Antitumor activity per RECIST v1.1 was assessed in all evaluable patients. […] The population evaluable for CA‐125 response included patients in the safety population with baseline CA‐125 ≥2 x upper limit of normal.

[2] = test system: triple-negative breast cancer (TNBC); assay: Antitumor activity per RECIST v1.1 (best overall response, ORR, CBR, PFS) in patients with TNBC; type: in vivo, human
Method: Secondary objectives were assessment of PK parameters and antitumor activity. Blood samples for the PK analysis were collected at Cycle 1 on Days 1, 2, and 3. Pharmacokinetic sampling was performed at Cycle 1 on Day 1 (predose and at 0.5, 1, 2, 4, 6, 9, and 12 hours postdose), Day 2, Day 3, and Day 10 (predose and at 0.5, 1, 2, 4, 6, 9, and 12 hours postdose); then at Cycles 2 and 3 on Day 1 (predose and at 2 hours postdose). […] Tumor assessments were performed by the investigators at screening, every 6 weeks after the first dose of pamiparib in the 1st year, and every 12 weeks thereafter until progression, per RECIST v1.1. Patients completed the study at the time of their safety follow‐up visit; therefore, radiological assessment of disease progression was not performed after the safety follow‐up visit. Approximately 14 to 18 evaluable patients were expected to enroll in the phase 1 part of the study. The safety population included all patients who received ≥1 dose of pamiparib. The PK population included all patients for whom valid pamiparib PK parameters could be estimated. Antitumor activity per RECIST v1.1 was assessed in all evaluable patients. […] The population evaluable for CA‐125 response included patients in the safety population with baseline CA‐125 ≥2 x upper limit of normal. Descriptive statistics were used to summarize all study data. Continuous variables included the number of non‐missing observations, mean, standard deviation, median, minimum, and maximum. Categorical variables were summarized by their frequency and percentage. Progression‐free survival was estimated using the Kaplan–Meier method and the corresponding 95% confidence interval (CI) was constructed using Greenwood's formula. Standard PK parameters (i.e., area under the plasma concentration‐time curve [AUC] from time of drug administration; maximum plasma concentration [Cmax]; time to Cmax; elimination half‐life [t1/2]; apparent clearance; and apparent volume of distribution during terminal phase) were estimated and derived using standard non‐compartmental methods.

[3] = test system: PARP1/2; settings: cited from earlier work
[4] = test system: patients with advanced solid tumors; settings: cited from earlier work
[5] = test system: advanced HGOC or TNBC; assay: Progression-free survival, total safety population; type: in vivo, human; settings: Total (N=15)
Method: Secondary objectives were assessment of PK parameters and antitumor activity. Blood samples for the PK analysis were collected at Cycle 1 on Days 1, 2, and 3. Pharmacokinetic sampling was performed at Cycle 1 on Day 1 (predose and at 0.5, 1, 2, 4, 6, 9, and 12 hours postdose), Day 2, Day 3, and Day 10 (predose and at 0.5, 1, 2, 4, 6, 9, and 12 hours postdose); then at Cycles 2 and 3 on Day 1 (predose and at 2 hours postdose). […] Tumor assessments were performed by the investigators at screening, every 6 weeks after the first dose of pamiparib in the 1st year, and every 12 weeks thereafter until progression, per RECIST v1.1. Patients completed the study at the time of their safety follow‐up visit; therefore, radiological assessment of disease progression was not performed after the safety follow‐up visit. Descriptive statistics were used to summarize all study data. Continuous variables included the number of non‐missing observations, mean, standard deviation, median, minimum, and maximum. Categorical variables were summarized by their frequency and percentage. Progression‐free survival was estimated using the Kaplan–Meier method and the corresponding 95% confidence interval (CI) was constructed using Greenwood's formula. Standard PK parameters (i.e., area under the plasma concentration‐time curve [AUC] from time of drug administration; maximum plasma concentration [Cmax]; time to Cmax; elimination half‐life [t1/2]; apparent clearance; and apparent volume of distribution during terminal phase) were estimated and derived using standard non‐compartmental methods.

[6] = TNBC (n = 5), RECIST efficacy-evaluable
[7] = TNBC (n = 5), RECIST efficacy-evaluable, 20-60 mg BID
[8] = TNBC (n=6), Kaplan-Meier, NE, not estimable

## C[C@]12CCCN1CC1=NNC(=O)c3cc(F)cc4[nH]c2c1c34 [pamiparib, Pamiparib]
[1]; HGOC (n=8), CA-125-evaluable population
  CA-125 response rate: 2 (25.0) n (%)
[1]; HGOC, n 2 responders
  Time to response (per CA-125 criteria), Median (range): 1.45 (1.4–1.5) months
[2]; [6]
  Clinical benefit rate (CR+PR+SD ≥24 weeks): 0 % (95% CI)
  Disease control rate (CR+PR+SD): 0 % (95% CI)
  Objective response rate (CR+PR): 0 % (95% CI)
[2]; [7]
  Best overall response: Complete response: 0 n (%)
  Best overall response: Partial response: 0 n (%)
  Best overall response: Stable disease: 0 n (%)
[2]; TNBC (n=6), Kaplan-Meier
  Median PFS (95% CI): 1.5 (1.45–1.61) months
[2]; [8]
  Event-free rate at 3 months (95% CI): 0 (NE–NE) %
  Event-free rate at 6 months (95% CI): 0 (NE–NE) %
  Event-free rate at 9 months (95% CI): 0 (NE–NE) %
[2]; TNBC (n=6), safety population
  PFS Events: 5 (83.3) n (%)
  PFS events: Disease progression: 5 n (%) and 5 (83.3) n (%)
[3]
  Potency relative to olaparib (fold more potent): 10 fold
[4]; FIH study NCT02361723, PO
  Recommended phase 2 dose (RP2D): 60 mg BID
[4]; FIH study NCT02361723
  Linearity of pamiparib exposure: linear up to 80 mg BID
  Maximum tolerated dose (MTD): 80 mg BID
[5]; Kaplan-Meier
  Event-free rate at 3 months (95% CI): 50.0 (20.85–73.61) %
  Event-free rate at 6 months (95% CI): 40.0 (13.52–65.73) %
  Event-free rate at 9 months (95% CI): 40.0 (13.52–65.73) %
[5]; Kaplan-Meier, NE, not estimable
  Median PFS (95% CI): 4.2 (1.48–NE) months
[5]; safety population
  PFS Events: 7 (46.7) n (%)
  PFS events: Disease progression: 7 (46.7) n (%)
